Data reported in ChEMBL document CHEMBL1201862, “PubChem BioAssay data set” (2004).
Active and inactive are the calls of the source.

How the values were obtained:
[1] = HeLa cell cytotoxicity, dose response, cytotoxicity control for MgcRacGAP inhibitor project (AID 624300); type: functional
[2] = human group III sPLA2 inhibitors, dose response, biochemical, QFRET, IC50 (AID 743457);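 also: green fluorescence rise as the enzyme cleaves BODIPY PC-A2 in liposomes; potency for inhibition of the enzyme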
H9c2 = assay: cells; type: functional, cell-based; details: Rattus norvegicus, H9c2, Myocardium
[3] = Counterscreen for inhibitors of Trypanosoma brucei methionyl tRNA synthetase (MetRS): Luminescence-based cell-based high throughput dose response assay to identify compounds that are cytotoxic to Jurkat human T lymphocyte cells.; type: functional
cells = type: functional, cell-based
[4] = biological target: T1, Nuclear receptor subfamily 0 group B member 1 (Homo sapiens, UniProt P51843); type: functional, cell-based;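 also: HEK293T cells transfected with SF-1 and DAX-1 plus StAR promoter luciferase reporter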
T1 sequence (P51843 whole entry): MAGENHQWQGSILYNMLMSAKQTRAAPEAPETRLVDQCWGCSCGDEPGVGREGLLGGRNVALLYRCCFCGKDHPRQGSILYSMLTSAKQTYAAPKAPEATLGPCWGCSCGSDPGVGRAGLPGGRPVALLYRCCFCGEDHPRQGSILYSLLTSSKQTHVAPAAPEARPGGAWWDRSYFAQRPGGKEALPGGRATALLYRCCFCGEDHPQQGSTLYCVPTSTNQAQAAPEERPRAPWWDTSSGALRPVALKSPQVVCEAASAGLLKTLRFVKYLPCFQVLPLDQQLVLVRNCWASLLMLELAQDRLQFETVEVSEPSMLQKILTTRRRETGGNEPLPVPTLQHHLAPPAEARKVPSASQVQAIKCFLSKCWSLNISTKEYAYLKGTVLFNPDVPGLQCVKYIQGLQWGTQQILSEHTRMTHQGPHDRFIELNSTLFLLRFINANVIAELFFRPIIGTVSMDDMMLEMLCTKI

[5] = HEK293T cell cytotoxicity, dose response, cytotoxicity control for HIV Vif inhibitor project, cherry-picks (AID 652208); type: functional, cell-based
[6] = StAR promoter reporter inhibition counter-screen, dose response, counter-screen for LRH-1 inverse agonist project, cell-based, luminescence, luciferase reporter (AID 651969); type: functional
[7] = biological target: Nuclear receptor subfamily 5 group A member 2 (Homo sapiens, UniProt O00482); type: functional, cell-based;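 also: HEK293T cells transfected with LRH-1 and a StAR promoter luciferase reporter; potency for inhibitors that lower LRH-1 driven reporter light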
Chain of Nuclear receptor subfamily 5 group A member 2 (O00482 whole entry): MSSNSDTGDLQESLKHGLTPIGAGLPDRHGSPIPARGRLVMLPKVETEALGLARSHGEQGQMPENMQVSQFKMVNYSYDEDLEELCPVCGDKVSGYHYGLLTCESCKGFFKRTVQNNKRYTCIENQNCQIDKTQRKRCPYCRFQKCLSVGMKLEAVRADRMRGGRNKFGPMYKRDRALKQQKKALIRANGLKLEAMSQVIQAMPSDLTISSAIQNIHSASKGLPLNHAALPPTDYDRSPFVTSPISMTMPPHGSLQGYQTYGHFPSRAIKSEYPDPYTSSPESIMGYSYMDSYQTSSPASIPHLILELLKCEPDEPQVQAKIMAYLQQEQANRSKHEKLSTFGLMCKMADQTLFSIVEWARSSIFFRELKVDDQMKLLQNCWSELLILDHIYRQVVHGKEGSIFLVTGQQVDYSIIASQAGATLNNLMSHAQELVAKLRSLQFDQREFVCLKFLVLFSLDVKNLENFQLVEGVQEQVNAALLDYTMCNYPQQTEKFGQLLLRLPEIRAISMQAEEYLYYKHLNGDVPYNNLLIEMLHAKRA

Steroidogenic factor 1 = Steroidogenic factor 1 (Homo sapiens, UniProt Q13285); assay: Counterscreen for inverse agonists of the liver receptor homolog-1 (LRH-1; NR5A2): Luminescence-based cell-based high throughput dose response assay to identify inverse agonists of the Steroidogenic Factor 1 Nuclear Receptor (SF1; NR5A1).; type: functional
Chain of Steroidogenic factor 1 (Q13285 whole entry): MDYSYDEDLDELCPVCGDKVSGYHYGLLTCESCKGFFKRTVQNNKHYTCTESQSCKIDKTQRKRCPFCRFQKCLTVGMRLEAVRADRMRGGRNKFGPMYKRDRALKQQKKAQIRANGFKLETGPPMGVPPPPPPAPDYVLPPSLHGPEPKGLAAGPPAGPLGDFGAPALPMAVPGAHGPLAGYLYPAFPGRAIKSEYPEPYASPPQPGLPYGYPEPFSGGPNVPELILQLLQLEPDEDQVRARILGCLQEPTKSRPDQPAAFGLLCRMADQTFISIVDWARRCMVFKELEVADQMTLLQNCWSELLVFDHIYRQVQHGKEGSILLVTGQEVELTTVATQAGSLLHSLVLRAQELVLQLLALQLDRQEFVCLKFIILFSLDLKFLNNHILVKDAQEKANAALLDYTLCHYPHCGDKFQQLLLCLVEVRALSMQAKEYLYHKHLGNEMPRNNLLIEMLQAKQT

Genome polyprotein = Genome polyprotein (dengue virus type 2, UniProt P29990); assay: Dengue-2 NS5 methyltransferase inhibitors, primary screen, biochemical, confirmation dose response (AID 588689); type: functional
[8] = biological target: T2, Polyadenylate-binding protein 1 (Homo sapiens, UniProt P11940); assay: PABP1 MLLE–PAM2 interaction inhibitors, dose response, miRNA deadenylation inhibitor project, biochemical, fluorescence polarization, Cy5-PAM2 peptide, secondary (AID 602260); type: functional; details: read-out: IC50_Mean
T2 sequence (P11940 whole entry): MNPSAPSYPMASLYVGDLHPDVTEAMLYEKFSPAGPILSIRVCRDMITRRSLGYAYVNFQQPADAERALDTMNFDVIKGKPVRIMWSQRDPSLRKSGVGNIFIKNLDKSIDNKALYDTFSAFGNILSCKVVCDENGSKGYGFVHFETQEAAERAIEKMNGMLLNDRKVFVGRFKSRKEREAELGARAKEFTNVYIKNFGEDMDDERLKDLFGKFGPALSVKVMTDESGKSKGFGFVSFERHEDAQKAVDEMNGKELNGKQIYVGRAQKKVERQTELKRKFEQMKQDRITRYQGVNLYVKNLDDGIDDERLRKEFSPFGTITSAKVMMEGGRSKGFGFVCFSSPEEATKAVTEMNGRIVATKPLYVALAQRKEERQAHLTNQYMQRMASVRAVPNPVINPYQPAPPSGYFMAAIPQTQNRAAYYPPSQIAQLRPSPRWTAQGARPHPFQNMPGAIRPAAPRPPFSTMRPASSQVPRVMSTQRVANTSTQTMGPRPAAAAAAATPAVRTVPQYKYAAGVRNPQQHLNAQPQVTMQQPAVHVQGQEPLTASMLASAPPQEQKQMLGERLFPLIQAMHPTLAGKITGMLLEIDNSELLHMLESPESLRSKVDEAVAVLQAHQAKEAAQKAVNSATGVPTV

[9] = biological target: T2, Polyadenylate-binding protein 1; assay: PABP1 MLLE–PAM2 binding inhibitor potency, dose response, biochemical, fluorescence polarization, FITC-PAM2 peptide (AID 602259); type: functional; details: read-out: IC50_Mean
[10] = biological target: T3, Sentrin-specific protease 8 (Homo sapiens, UniProt Q96LD8); type: functional
T3 sequence (Q96LD8 whole entry): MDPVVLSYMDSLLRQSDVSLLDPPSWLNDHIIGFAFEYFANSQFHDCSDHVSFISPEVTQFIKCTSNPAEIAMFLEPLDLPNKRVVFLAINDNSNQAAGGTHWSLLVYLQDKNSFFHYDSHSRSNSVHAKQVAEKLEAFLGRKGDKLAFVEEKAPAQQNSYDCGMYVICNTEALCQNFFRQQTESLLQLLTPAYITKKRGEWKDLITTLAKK

[11] = biological target: T3, Sentrin-specific protease 8; type: functional; remark: listed apart in the source
[12] = biological target: T4, Interleukin-1 receptor-associated kinase 4 (Homo sapiens, UniProt Q9NWZ3); type: functional
T4 sequence (Q9NWZ3 whole entry): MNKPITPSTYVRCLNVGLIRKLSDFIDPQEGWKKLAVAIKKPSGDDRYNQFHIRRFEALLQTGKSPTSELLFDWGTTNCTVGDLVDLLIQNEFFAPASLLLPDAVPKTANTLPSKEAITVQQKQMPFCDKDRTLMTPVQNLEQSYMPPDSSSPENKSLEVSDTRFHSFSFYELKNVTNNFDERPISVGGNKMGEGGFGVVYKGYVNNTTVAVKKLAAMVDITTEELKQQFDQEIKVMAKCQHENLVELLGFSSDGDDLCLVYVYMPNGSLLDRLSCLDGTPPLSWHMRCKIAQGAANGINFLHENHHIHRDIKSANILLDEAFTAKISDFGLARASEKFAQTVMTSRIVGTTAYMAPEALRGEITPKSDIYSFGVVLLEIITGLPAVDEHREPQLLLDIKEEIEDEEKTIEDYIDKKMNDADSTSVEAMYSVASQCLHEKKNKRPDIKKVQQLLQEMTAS

[13] = biological target: Serine/threonine-protein kinase pim-1 (Homo sapiens, UniProt P11309); type: functional
[14] = biological target: Glycogen synthase kinase-3 beta (Homo sapiens, UniProt P49841); type: functional;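 also: value comes from a broad kinome profiling panel, with GSK3B as the panel member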
[15] = biological target: Dual specificity protein kinase CLK4 (Homo sapiens, UniProt Q9HAZ1); type: functional
[16] = biological target: cAMP-dependent protein kinase catalytic subunit alpha (Homo sapiens, UniProt P17612); type: functional
[17] = biological target: Homeodomain-interacting protein kinase 2 (Homo sapiens, UniProt Q9H2X6); type: functional;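 also: measured within a kinome-wide kinase profiling panel, HIPK2 being one panel member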
Chain of Homeodomain-interacting protein kinase 2 (Q9H2X6 whole entry): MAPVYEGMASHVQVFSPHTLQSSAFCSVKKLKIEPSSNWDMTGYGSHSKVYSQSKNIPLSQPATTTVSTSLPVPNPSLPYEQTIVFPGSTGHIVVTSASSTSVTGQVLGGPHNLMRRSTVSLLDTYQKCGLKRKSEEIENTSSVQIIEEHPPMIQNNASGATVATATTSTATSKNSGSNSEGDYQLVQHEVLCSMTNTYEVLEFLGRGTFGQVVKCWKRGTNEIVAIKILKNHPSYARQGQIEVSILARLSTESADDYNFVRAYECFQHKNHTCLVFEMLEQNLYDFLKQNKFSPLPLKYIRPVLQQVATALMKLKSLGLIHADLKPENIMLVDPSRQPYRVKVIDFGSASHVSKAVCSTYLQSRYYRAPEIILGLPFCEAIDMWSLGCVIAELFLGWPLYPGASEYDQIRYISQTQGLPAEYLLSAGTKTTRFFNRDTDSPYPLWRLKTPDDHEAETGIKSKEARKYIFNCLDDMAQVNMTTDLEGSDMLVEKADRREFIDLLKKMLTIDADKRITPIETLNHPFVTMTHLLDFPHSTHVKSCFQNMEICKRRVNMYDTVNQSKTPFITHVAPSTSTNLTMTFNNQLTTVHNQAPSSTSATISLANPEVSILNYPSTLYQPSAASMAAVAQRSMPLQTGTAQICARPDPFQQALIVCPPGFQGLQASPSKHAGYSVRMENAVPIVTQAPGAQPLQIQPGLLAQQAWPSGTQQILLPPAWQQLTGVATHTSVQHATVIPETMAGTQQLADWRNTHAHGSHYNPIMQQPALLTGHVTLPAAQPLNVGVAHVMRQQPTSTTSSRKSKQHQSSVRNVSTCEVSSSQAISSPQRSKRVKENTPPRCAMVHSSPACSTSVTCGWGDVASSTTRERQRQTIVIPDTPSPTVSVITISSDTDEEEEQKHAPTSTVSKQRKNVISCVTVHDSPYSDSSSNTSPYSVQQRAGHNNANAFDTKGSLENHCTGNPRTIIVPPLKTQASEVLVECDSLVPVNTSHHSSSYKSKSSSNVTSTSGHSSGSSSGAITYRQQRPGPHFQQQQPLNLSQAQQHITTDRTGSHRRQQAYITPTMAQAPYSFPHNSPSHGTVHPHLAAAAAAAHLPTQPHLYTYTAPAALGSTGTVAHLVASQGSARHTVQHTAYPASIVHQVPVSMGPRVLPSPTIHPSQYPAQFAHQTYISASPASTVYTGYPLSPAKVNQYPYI

[18] = biological target: Mitogen-activated protein kinase kinase kinase kinase 4 (Homo sapiens, UniProt O95819); type: functional
[19] = biological target: Cell division cycle 7-related protein kinase (Homo sapiens, UniProt O00311); type: functional;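 also: value obtained from a kinome-wide kinase panel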
[20] = biological target: MAP kinase-interacting serine/threonine-protein kinase 2 (Homo sapiens, UniProt Q9HBH9); type: functional
INS1 = assay: beta cell apoptosis inhibitors, cytokine rescue, dose response, luminescence, retest (AID 449756); type: functional, cell-based; details: Rattus norvegicus;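 also: cell death triggered by IL-1 beta plus TNF-alpha plus IFN-gamma mixture; protective hits raise ATP signal compared with cytokine alone wells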
[21] = biological target: Arf-GAP with SH3 domain, ANK repeat and PH domain-containing protein 1 (Homo sapiens, UniProt Q9ULH1); type: functional;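 also: biochemical fluorescence polarization dose–response screen measuring inhibition of ASAP1; ASAP1 GAP domain stimulating GTP hydrolysis by truncated human ARF1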
Chain of Arf-GAP with SH3 domain, ANK repeat and PH domain-containing protein 1 (Q9ULH1 whole entry, the tested form may be a part): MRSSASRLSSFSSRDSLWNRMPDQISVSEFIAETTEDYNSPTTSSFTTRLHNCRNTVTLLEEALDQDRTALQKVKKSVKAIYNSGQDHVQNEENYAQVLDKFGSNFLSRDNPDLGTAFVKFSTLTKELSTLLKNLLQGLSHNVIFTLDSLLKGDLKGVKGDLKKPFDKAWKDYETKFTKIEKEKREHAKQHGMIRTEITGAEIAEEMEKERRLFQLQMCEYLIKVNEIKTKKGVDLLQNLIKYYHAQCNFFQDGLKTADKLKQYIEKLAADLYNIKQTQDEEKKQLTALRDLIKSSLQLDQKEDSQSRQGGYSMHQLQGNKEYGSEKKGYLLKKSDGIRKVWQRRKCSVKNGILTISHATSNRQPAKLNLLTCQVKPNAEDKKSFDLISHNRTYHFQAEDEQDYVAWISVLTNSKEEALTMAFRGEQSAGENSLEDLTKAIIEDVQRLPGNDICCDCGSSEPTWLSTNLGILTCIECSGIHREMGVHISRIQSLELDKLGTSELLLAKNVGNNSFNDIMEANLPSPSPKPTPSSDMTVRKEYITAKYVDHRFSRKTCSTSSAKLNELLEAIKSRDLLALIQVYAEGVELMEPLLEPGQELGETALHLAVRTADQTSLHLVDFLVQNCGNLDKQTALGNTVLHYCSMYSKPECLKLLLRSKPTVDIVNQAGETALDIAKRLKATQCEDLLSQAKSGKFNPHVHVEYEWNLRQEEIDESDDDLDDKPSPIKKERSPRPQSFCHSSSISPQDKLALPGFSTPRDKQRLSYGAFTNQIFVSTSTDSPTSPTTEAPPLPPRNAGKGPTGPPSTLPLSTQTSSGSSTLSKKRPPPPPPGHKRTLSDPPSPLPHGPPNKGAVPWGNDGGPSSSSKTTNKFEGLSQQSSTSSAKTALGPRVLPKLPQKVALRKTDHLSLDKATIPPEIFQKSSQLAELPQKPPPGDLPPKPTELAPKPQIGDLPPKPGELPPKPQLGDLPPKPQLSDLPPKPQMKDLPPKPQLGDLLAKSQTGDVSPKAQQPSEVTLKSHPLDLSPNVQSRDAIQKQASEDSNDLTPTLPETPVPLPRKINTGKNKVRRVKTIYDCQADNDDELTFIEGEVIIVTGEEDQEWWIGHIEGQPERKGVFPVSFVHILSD

Prothrombin = Prothrombin (Bos taurus, UniProt P00735); assay: thrombin inhibition, dose response, biochemical, fluorescence polarization, uHTS hits (AID 602369); type: functional
[22] = biological target: 26S proteasome non-ATPase regulatory subunit 14 (Homo sapiens, UniProt O00487); assay: inhibition of proteasome subunit RPN11 – biochemical, fluorescence polarization, uHTS hits, confirmation (AID 602368); type: functional
[23] = Luminescence Cell-Based Dose Retest to Confirm Inhibitors of Cancer Stem Cells. [Related pubchem assays (depositor defined):AID2717, AID2721]; type: functional; details: Homo sapiens
[24] = biological target: 72 kDa type IV collagenase (Homo sapiens, UniProt P08253); assay: Dose Response validation of uHTS RPN11 inhibitor hits using a MMP-2 Fluorescence assay.; type: functional
Chain of 72 kDa type IV collagenase (P08253 whole entry): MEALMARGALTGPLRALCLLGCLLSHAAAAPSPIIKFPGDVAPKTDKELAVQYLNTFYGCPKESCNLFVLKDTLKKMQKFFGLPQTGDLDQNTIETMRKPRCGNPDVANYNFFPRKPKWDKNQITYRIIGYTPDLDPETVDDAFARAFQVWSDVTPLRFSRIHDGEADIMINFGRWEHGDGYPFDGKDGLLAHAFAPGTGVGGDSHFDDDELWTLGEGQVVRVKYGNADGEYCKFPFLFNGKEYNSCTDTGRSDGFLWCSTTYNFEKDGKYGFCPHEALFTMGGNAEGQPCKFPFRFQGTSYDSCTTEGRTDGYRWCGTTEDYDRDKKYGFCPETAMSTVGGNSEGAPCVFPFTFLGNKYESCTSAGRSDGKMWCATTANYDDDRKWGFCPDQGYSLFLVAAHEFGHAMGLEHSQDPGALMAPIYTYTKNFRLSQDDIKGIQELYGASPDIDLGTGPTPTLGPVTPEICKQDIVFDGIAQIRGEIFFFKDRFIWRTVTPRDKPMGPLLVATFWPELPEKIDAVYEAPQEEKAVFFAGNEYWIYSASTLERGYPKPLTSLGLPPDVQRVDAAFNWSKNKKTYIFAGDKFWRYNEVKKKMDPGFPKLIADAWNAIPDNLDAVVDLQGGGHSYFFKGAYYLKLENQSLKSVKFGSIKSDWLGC

[25] = biological target: Adenosylmethionine-8-amino-7-oxononanoate aminotransferase (Mycobacterium tuberculosis, UniProt P9WQ81); assay: Mycobacterium tuberculosis BioA enzyme inhibitor Measured in Biochemical System Using Plate Reader - 2163-02_Inhibitor_Dose_CherryPick_Activity.; type: functional, Mycobacterium tuberculosis UT205
Chain of Adenosylmethionine-8-amino-7-oxononanoate aminotransferase (P9WQ81 whole entry): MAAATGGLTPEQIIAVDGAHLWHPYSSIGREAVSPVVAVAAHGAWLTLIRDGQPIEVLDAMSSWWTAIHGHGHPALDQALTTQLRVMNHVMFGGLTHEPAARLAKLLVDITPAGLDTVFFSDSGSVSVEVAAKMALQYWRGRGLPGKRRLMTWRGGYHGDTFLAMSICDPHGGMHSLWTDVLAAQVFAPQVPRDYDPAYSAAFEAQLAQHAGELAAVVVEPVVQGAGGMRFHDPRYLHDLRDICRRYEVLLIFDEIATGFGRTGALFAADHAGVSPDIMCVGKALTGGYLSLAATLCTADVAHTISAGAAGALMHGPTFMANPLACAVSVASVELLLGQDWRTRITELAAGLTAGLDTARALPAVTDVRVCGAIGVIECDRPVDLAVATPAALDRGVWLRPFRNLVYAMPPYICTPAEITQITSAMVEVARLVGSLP

[26] = biological target: T5, Apoptotic protease-activating factor 1 (Homo sapiens, UniProt O14727); assay: SAR analysis of small molecule Activators of Apaf-1 in a Fluorescent assay.; type: functional; details: read-out: EC50_Mean;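 also: caspase-3 cleavage of fluorogenic Rh110 DEVD substrate downstream of apoptosome activation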
T5 sequence (O14727 whole entry): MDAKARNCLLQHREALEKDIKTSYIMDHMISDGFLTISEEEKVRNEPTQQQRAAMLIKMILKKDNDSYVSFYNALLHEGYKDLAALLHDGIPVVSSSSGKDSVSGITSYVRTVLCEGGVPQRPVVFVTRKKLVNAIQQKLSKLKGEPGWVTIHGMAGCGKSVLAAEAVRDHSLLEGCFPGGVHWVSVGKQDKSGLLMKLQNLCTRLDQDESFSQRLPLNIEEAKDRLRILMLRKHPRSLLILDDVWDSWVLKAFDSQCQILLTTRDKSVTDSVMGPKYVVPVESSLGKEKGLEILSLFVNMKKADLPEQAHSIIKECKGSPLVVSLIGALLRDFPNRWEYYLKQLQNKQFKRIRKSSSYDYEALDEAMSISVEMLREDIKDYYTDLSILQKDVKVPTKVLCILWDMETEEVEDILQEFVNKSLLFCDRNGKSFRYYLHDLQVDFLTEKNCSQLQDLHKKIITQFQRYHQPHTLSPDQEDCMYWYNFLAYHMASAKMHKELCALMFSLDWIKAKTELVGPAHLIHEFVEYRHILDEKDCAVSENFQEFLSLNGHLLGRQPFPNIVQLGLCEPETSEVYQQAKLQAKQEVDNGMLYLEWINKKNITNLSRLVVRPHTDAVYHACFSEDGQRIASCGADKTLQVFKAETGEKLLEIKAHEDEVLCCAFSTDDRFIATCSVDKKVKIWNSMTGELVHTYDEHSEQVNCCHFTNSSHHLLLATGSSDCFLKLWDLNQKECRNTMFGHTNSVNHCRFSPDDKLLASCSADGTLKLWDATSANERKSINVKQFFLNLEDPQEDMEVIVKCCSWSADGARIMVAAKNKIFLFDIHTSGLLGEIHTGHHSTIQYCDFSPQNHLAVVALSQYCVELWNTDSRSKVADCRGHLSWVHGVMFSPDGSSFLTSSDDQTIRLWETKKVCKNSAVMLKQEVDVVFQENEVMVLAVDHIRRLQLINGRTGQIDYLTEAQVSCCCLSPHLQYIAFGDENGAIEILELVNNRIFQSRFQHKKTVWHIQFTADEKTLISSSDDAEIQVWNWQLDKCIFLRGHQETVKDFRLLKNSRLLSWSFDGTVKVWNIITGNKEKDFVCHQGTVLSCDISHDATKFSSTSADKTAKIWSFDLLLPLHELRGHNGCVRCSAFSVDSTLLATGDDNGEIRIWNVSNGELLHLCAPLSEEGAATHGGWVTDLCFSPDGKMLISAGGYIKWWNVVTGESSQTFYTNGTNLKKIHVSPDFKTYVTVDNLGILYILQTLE

Interleukin-8 = Interleukin-8 (Homo sapiens, UniProt P10145); assay: Dose Response confirmation of uHTS small molecule hits for cystic fibrosis induced NFkb Inhibitors in a PAF-induced IL8 counterscreen.; type: functional; details: read-out: IC50_Mean
[27] = growth suppression of beta-catenin-knockout colon cells, dose response, cell-based, HCT116, human colon tumor (AID 1045); type: functional;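 also: HCT116 colon tumor cells with beta catenin knocked out; cells exposed to compound for 60 hours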
[28] = inhibitors of intracellular T. cruzi replication, confirmation, NIH3T3 host cells, beta-gal luminescence (AID 2044); type: functional, cell-based;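 also: intracellular parasites grown in NIH/3T3 mouse fibroblasts as host cells; luminescent beta-galactosidase reporter signal from transgenic T. cruzi replicating inside host cells; inhibitors lower the luminescence signal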
[29] = growth suppression of PTEN-null colon cells, dose response, cell-based, HCT116 PTEN knockout (AID 1047); type: functional;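 also: HCT116 colon tumor cells with PTEN knocked out; cells exposed to compound for 60 hours before readout; potency for loss of cell viability measured by luminescence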
[30] = cytotoxicity toward NIH3T3 fibroblasts, dose response, counter-screen, cell-based, ATP luminescence, mouse fibroblasts (AID 2010); type: functional;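 also: cells exposed to compound for about 90 hours before reading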

## COc1ccccc1NC(=O)NNC(=O)c1ccc2ccccc2c1O
[1]
  CC50: 100 µM (active)
[2]
  IC50: > 122 µM (inactive)

## Cc1cc(Cl)ccc1OCCCC(=O)NNC(=O)c1ccccc1O
H9c2
  IC50: > 79 µM (inactive)
[3]
  IC50: 83.3 µM (inactive)

## CCCCN1C(C)=CC(=C2C(=O)c3ccccc3C2=O)C=C1C
cells
  IC50: > 67.5 µM (inactive)
[4]
  IC50: > 67.5 µM (inactive)

## CCOc1cccc(C(=O)Nc2ccc3oc(Cc4ccc(Cl)cc4)nc3c2)c1
[5]
  AC50: > 52 µM (inactive)

## Cc1ccc(NC(=O)CSc2nnc([C@@H]3CCCN3C(=O)OC(C)(C)C)o2)c(C)c1
[6]
  IC50: 35.9 µM (inactive)
[7]
  IC50: 1.33 µM (active)
Steroidogenic factor 1
  IC50: 0.932 µM (active)

## CC(C)n1nc(C(=O)Nc2ccc(-n3cnnn3)cc2)c2ccccc2c1=O
[5]
  AC50: > 52 µM (inactive)

## COc1ccc(NC(=O)CSc2ccc3c(c2)OCCO3)cc1
[6]
  IC50: 35.9 µM (inactive)
[7]
  IC50: 35.9 µM (inactive)
Steroidogenic factor 1
  IC50: 5.7 µM (active)

## Oc1ccc(CN2CCCCC2)nc1O
Genome polyprotein
  IC50: 64.9 µM (active)
[8]
  IC50: > 66 µM (inactive)
[9]
  IC50: 57.9 µM (inactive)
[10]
  IC50: 15.5 µM (active)
[11]
  IC50: 3.73 µM (active)

## c1ccc(Cn2nnc(-c3ccc4[nH]ncc4c3)c2-c2ccccc2)cc1
[12]
  Ki: > 10 µM (inactive)
[13]
  Ki: 3.16 µM (active)
[14]
  Ki: 0.01 µM (active)
[15]
  Ki: 0.00501 µM (active)
[16]
  Ki: 0.0316 µM (active)
[17]
  Ki: 1 µM (active)
[18]
  Ki: 0.794 µM (active)
[19]
  Ki: 0.000631 µM (active)
[20]
  Ki: 0.0398 µM (active)

## O=C(N/N=C/c1cc(Cl)ccc1O)c1ccc(Br)cc1
INS1
  AC50: 0.773 µM (active)
[21]
  IC50: 21.3 µM (inactive)
Prothrombin
  IC50: 63.2 µM (active)
[22]
  IC50: 12.7 µM (active)
[23]
  AC50: 1.09 µM (active)
[24]
  IC50: 10.3 µM (active)

## C=CCOc1ccc(/C=N/Nc2ccccn2)cc1OC
cells
  IC50: > 67.5 µM (inactive)
[4]
  IC50: > 67.5 µM (inactive)

## O=C(Nc1nccs1)[C@H]1[C@H](CO)[C@H]2Cn3c(ccc(-c4cccnc4)c3=O)[C@H]2N1CC1CCCC1
[25]
  AC50: 8.95 µM (active)

## O=C(C[C@@H]1C[C@@H]2c3cc(NC(=O)c4cccnc4)ccc3O[C@@H]2[C@@H](CO)O1)NCCc1ccccc1
[25]
  AC50: 6.92 µM (active)

## COC(=O)[C@@H]1COC(c2cc([N+](=O)[O-])ccc2[N+](=O)[O-])=N1
[26]
  EC50: > 100 µM (inactive)

## CC(=O)Oc1ccccc1C(=O)Oc1ccc(/C=N/n2cnnc2)cc1
Interleukin-8
  IC50: 4.67 µM (active)

## N#Cc1cc([N+](=O)[O-])ccc1Oc1cccc(/C=N/NC(=O)c2ccc(Cl)cc2)c1
[27]
  EC50: 51.9 µM (active)
[28]
  EC50: 0.616 µM (active)
[29]
  EC50: 48.5 µM (active)
[21]
  IC50: 32.8 µM (inactive)
[30]
  EC50: > 60 µM (not active)
